Reference: patent publication US20040116440A1, “Bombesin receptor antagonists” (priority 2000, published 2004)

Legend:
[1] = target: T1, cloned human GRP-preferring receptor (BB2) (Homo sapiens, UniProt P30550); experiment: BB2 binding assay, [125I][Tyr4]bombesin competition on membranes of CHO-K1 cells; conditions: 90 minutes
T1 construct: expressed in transfected cells; membranes prepared from the cells
Source text: (§1) The compounds of the invention have been evaluated in receptor binding assays which measure their affinity in a cloned human NMB-preferring receptor (BB1) assay and in a cloned human GRP-preferring receptor (BB2) assay. […] Accordingly they may be useful for the diagnosis, prevention, or treatment of male sexual dysfunction in humans and animals, female sexual dysfunction in humans and animals, anxiety and panic disorders, social phobia, depression, psychoses, sleeping disorders, memory impairment, pulmonary hypertension, lung repair and lung development disorders, cancer including prostate cancer and pancreatic cancer, hepatic porphyria, gastrointestinal secretory disturbances, gastrointestinal disorders including colitis, Crohn's disease and inflammatory bowel disease, emesis, anorexia, pain, seasonal affective disorders, feeding disorders, or pruritus.
(§2) In the following experiments, measurement of BB1 and BB2 binding was as follows. CHO-K1 cells stably expressing cloned human NMB (for (BB1 assay) and GRP receptors (for BB2 assay) were routinely grown in Ham's F12 culture medium supplemented with 10% foetal calf serum and 2 mM glutamine. For binding experiments, cells were harvested by trypsinization, and stored frozen at −70° C. in Ham's F12 culture medium containing 5% DMSO until required. On the day of use, cells were thawed rapidly, diluted with an excess of culture medium, and centrifuged for 5 minutes at 2000 g. Cells were resuspended in 50 mM Tris-HCl assay buffer (pH 7.4 at 21° C., containing 0.02% BSA, […] bacitracin, […] chymostatin, […] leupeptin, and 2 mM phosphoramidon), counted, and polytronned (setting 5, 10 sec) before centrifuging for 10 minutes at 28,000 g. The final pellet was resuspended in assay buffer to a final cell concentration of 1.5×10^5/mL. For binding assays, 200 μL aliquots of membranes were incubated with [^125I][Tyr^4]bombesin (<0.1 nM) in the presence and absence of test compounds (final assay volume 250 μL) for 60 minutes and 90 minutes for NMB and GRP receptors, respectively. Nonspecific binding was defined by 1 μM bombesin. Assays were terminated by rapid filtration under vacuum onto Whatman GF/C filters presoaked in 0.2% PEI for >2 hours, and washed 50 mM Tris-HCl (pH 6.9 at 21° C.; 6×1 mL). Radioactivity bound was determined using a gamma counter.
All competition data was analysed using nonlinear regression utilising iterative curve-plolting procedures in Prism® (GraphPad Software Inc., San Diego, USA). IC50 values were corrected to Ki values using the Cheng-Prusoff equation (Cheng Y., Prusoff W. H., Biochem. Pharmacol. 22: 3099-3108, 1973).

[2] = target: T2, cloned human NMB-preferring receptor (BB1) (Homo sapiens, UniProt P28336); experiment: BB1 binding assay, [125I][Tyr4]bombesin competition on membranes of CHO-K1 cells; conditions: 60 minutes
T2 construct: expressed in transfected cells; membranes prepared from the cells
T2 sequence (P28336 whole entry): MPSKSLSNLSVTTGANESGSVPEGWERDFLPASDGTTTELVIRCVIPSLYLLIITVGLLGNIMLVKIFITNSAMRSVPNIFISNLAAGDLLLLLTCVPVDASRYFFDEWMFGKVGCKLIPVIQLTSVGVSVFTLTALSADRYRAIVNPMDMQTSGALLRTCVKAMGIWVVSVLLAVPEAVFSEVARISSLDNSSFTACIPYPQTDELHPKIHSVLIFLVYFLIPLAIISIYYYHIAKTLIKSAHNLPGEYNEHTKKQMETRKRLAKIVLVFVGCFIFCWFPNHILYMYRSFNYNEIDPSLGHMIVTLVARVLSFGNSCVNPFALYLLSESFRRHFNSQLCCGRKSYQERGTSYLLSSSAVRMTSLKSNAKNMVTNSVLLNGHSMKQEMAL
Source text: as §1
as §2, with “For binding assays, 200 μL aliquots of membranes were incubated with [^125I][Tyr^4]bombesin (<0.1 nM) in the presence and absence of test compounds (final assay volume 250 μL) for 60 minutes and 90 minutes for NMB and GRP receptors, respectively. Nonspecific binding was defined by 1 μM bombesin. Assays were terminated by rapid filtration under vacuum onto Whatman GF/C filters presoaked in 0.2% PEI for >2 hours, and washed 50 mM Tris-HCl (pH 6.9 at 21° C.; 6×1 mL).” left out
All competition data was analysed using nonlinear regression utilising iterative curve-plolting procedures in Prism® (GraphPad Software Inc., San Diego, USA). […]

[3] = Table 2, N-acyl derivatives of Intermediate VIa
[4] = Table 6, N-terminal sulfonamide derivatives

T1 sequence (P30550 whole entry): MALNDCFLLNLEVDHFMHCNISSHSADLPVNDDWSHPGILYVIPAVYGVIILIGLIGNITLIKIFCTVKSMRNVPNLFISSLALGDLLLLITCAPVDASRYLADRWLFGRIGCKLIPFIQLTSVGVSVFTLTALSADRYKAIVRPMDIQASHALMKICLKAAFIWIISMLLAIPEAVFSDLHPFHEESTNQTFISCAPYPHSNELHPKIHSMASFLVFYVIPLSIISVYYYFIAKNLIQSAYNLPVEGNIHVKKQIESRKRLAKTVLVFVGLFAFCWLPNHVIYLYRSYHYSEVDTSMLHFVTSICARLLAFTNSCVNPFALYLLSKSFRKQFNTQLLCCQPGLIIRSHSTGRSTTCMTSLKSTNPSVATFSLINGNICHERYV

IC50 [1, 3] | IC50 [1, 4] | IC50 [2, 4] | IC50 [2, 3] | Compound
> 10000 nM |  |  |  | Cc1ccccc1CC(=O)N[C@@](C)(Cc1c[nH]c2ccccc12)C(=O)NCC1(c2ccccn2)CCCCC1 [Example 20, (S)-3-(1H-Indol-3-yl)-2-methyl-N-(1-pyridin-2-yl-cyclohexylmethyl)-2-(2-o-tolyl-ethanoylamino)-propionamide]
 | > 10000 nM |  |  | C[C@@](Cc1c[nH]c2ccccc12)(NS(=O)(=O)c1cc(Cl)sc1Cl)C(=O)NCC1(c2ccccn2)CCCCC1 [Example 126, (S)-2-(2,5-Dichloro-thiophene-3-sulfonylamino)-3-(1H-indol-3-yl)-2-methyl-N-(1-pyridin-2-yl-cyclohexylmethyl)-propionamide]
 | > 10000 nM | 627 nM |  | C[C@@](Cc1c[nH]c2ccccc12)(NS(=O)(=O)c1cc(C(F)(F)F)ccc1Cl)C(=O)NCC1(c2ccccn2)CCCCC1 [Example 135, (S)-2-(2-Chloro-5-trifluoromethyl-benzenesulfonylamino)-3-(1H-indol-3-yl)-2-methyl-N-(1-pyridin-2-yl-cyclohexylmethyl)-propionamide]
 | > 10000 nM | 758 nM |  | C[C@@](Cc1c[nH]c2ccccc12)(NS(=O)(=O)c1ccc(C(F)(F)F)cc1[N+](=O)[O-])C(=O)NCC1(c2ccccn2)CCCCC1 [Example 136, (S)-3-(1H-Indol-3-yl)-2-methyl-2-(2-nitro-4-trifluoromethyl-benzenesulfonylamino)-N-(1-pyridin-2-yl-cyclohexylmethyl)-propionamide]
 |  |  | 2520 nM | Dimethylamino-N {(S)-2-(1H-indol-3-yl)-1-methyl-1-[(1-pyridin-2-yl-cyclohexyl-methyl)-carbamoyl]-ethyl}-benzamide [Example 11]
